Assay results from ChEMBL document CHEMBL5375988, “AcGlcAs: A Novel P53-Targeting Arsenical with Potent Cellular Uptake and Cancer Cell Selectivity” (J Med Chem, 2023).
Activity calls are given as the source filed them. No cut-off for these calls is given here.

Assays:
NB-4 [1] = test: Induction of apoptosis in human NB4 cells assessed as late apoptotic cells at 27 uM preincubated for 1 hrs followed by replacement with fresh culture medium and measured after 24 hrs by Annexin V-FITC/7AAD staining based flow cytometry assay (reference value: 3.71%); assay type: functional
NB-4 [2] = test: Induction of apoptosis in human NB4 cells assessed as late apoptotic cells at 9 uM preincubated for 1 hrs followed by replacement with fresh culture medium and measured after 24 hrs by Annexin V-FITC/7AAD staining based flow cytometry assay (reference value: 3.71%); assay type: functional
[3] = test system: Cellular tumor antigen p53 (Homo sapiens), P04637 [V272M]; test: Thermostabilization of recombinant p53 V272M mutant (unknown origin) […] assessed as increase in melting temperature at 1:15 ratio in HEPES at pH 7.5 by DSF analysis
[4] = Drug uptake in human HepG2 cells assessed as fold increase in arsenic accumulation at 10 uM incubated for 10 mins by ICP-MS analysis; assay type: ADME, cell-based; settings: hepg2, 10 min
NCI-H1299 [5] = test: Upregulation of PUMA protein expression in human NCI-H1299 cells overexpressing p53-V272M mutant pretreated for 1 hr followed by culturing in fresh medium for 16 hrs by Western blot analysis; assay type: functional, cell-based
[6] = Drug uptake in HFL1 cells at 10 uM measured after 10 mins by ICP-MS analysis; assay type: ADME, cell-based; settings: human, hfl1, 10 min
U-937 [7] = test: Cytotoxicity against p53 null human U-937 cells harboring p53 V272M mutant incubated for 48 hrs by CCK-8 assay; assay type: functional, cell-based; settings: U-937, 48 h
U-937 [8] = test: Upregulation of p21 protein expression in human U-937 cells overexpressing p53-V272M mutant at 0.1 to 0.5 uM pretreated for 1 hr followed by culturing in fresh medium for 16 hrs by Western blot analysis; assay type: functional, cell-based; settings: dose 0.1-0.5 µM
NB-4 [9] = test: Induction of apoptosis in human NB4 cells assessed as viable cells at 27 uM preincubated for 1 hrs followed by replacement with fresh culture medium and measured after 24 hrs by Annexin V-FITC/7AAD staining based flow cytometry assay (reference value: 94%); assay type: functional; settings: read-out: Activity
U-937 [10] = test: Induction of extrinsic apoptosis in human U-937 cells overexpressing p53-V272M mutant assessed as upregulation of PERP gene expression by RT-qPCR analysis; assay type: functional, cell-based
[11] = Toxicity in M-NSG mouse xenografted with luciferase transduced human U-937 cells harboring p53 V272M mutant assessed as reduction in body weight at 10 mg/kg, iv measured for 8 days post administration; assay type: organism-based; settings: in vivo, 192 h, time 8 day
[12] = Clearance in mouse assessed as hepatic blood flow; assay type: ADME, tissue-based
HepG2 = test: Impairment of thiol-mediated drug uptake in human HepG2 cells assessed as reduction in arsenic level at 10 uM pretreated with N-ethylmaleimide for 30 mins followed by compound addition and measured after 10 mins by ICP-MS analysis relative to control; assay type: ADME, cell-based; parameters: scale not given: the % may be the effect or the level left; settings: hepg2, 10 min
[13] = Chemical stability of compound in PBS at 10 uM incubated for 1 hr by LC-MS analysis; assay type: physicochemical; settings: buffer
[14] = Drug uptake in human HepG2 cells at 1 to 10 uM incubated for 5 mins at 4 degreeC by ICP-MS analysis; assay type: ADME, cell-based; settings: hepg2, 5 min, dose 1-10 µM
U-937 [15] = test: Induction of apoptosis in human U-937 cells harboring p53-V272M mutant assessed as increase in late apoptotic cells at 0.5 to 8 uM pretreated for 1 hr followed by culturing in fresh medium for 24 hrs by Annexin V-FITC/7AAD staining based flow cytometry analysis; assay type: functional, cell-based; settings: dose 0.5-8 µM
U-937 [16] = test: Antitumor activity against human U-937 cells harboring p53-V272M mutant xenografted in NSG mouse assessed as delay in tumor progression at 10 mg/kg, iv administered for 9 days by bioluminescence imaging based luciferase analysis; assay type: functional, organism-based; settings: time 9.0 day
U-937 [17] = test: Induction of extrinsic apoptosis in human U-937 cells overexpressing p53-V272M mutant assessed as upregulation of FAS gene expression by RT-qPCR analysis; assay type: functional, cell-based
[18] = test system: Cellular tumor antigen p53 (Homo sapiens), P04637 [V272M]; test: Rescue of p53-V272M mutant transcriptional activity on PUMA promoter in human NCI-H1299 cells assessed as fold change in transcriptional activity at 10 uM pretreated for 10 mins to1 hr followed by replacement with fresh culture media and measured after 24 hrs by firefly/renilla based luciferase reporter assay; assay type: cell-based; settings: filed as activator, time 10-60 min
U-937 [19] = test: Upregulation of p21 mRNA expression in human U-937 cells overexpressing p53-V272M mutant pretreated for 1 hr followed by culturing in fresh medium for 4 hrs by RT-qPCR analysis; assay type: functional, cell-based
NB-4 [20] = test: Induction of apoptosis in human NB4 cells assessed as early apoptotic cells at 27 uM preincubated for 1 hrs followed by replacement with fresh culture medium and measured after 24 hrs by Annexin V-FITC/7AAD staining based flow cytometry assay (reference value: 2.15%); assay type: functional
[21] = Drug uptake in human MDA-MB-231 cells assessed as fold increase in arsenic accumulation at 10 uM incubated for 10 mins by ICP-MS analysis; assay type: ADME, cell-based; settings: mda-mb-231, 10 min
NB-4 [22] = test: Induction of granulocytic differentiation in human NB4 cells assessed as CD11b positive cells at 3 uM incubated for 1 hrs followed by replacement with fresh culture medium for 48 hrs by flow cytometry analysis relative to control; assay type: functional
NCI-H1299 [23] = test: Upregulation of CDKN1A mRNA expression in human NCI-H1299 cells overexpressing p53-V272M mutant at 2 uM pretreated for 1 hr followed by culturing in fresh medium for 8 hrs by RT-qPCR analysis; assay type: functional, cell-based
U-937 [24] = test: Induction of intrinsic apoptosis in human U-937 cells overexpressing p53-V272M mutant assessed as upregulation of BAX gene expression by RT-qPCR analysis; assay type: functional, cell-based
[25] = test system: Cellular tumor antigen p53 (Homo sapiens), P04637 [V272M]; test: Restoration of p53-V272M mutant transcriptional activity on PUMA promoter in human NCI-H1299 cells at 10 uM pretreated with -auranofin for 10 mins followed by compound addition for 10 mins and further incubation in fresh medium for 24 hrs by firefly/renilla based luciferase reporter assay; assay type: cell-based
NB-4 [26] = test: Induction of apoptosis in human NB4 cells assessed as late apoptotic cells at 3 uM preincubated for 1 hrs followed by replacement with fresh culture medium and measured after 24 hrs by Annexin V-FITC/7AAD staining based flow cytometry assay (reference value: 3.71%); assay type: functional
[27] = target: PML-RARalpha (Homo sapiens) (UniProt P10276+P29590); test: Induction of PML/RARalpha (unknown origin) degradation overexpressed in HEK293T cells assessed as residual protein level at 2 to 6 uM incubated for 1 hrs followed by replacement with fresh culture medium and measured after 16 hrs by Western blot analysis; assay type: cell-based; settings: dose 2-6 µM
NB-4 [28] = test: Inhibition of colony formation in human NB4 cells at 1 to 9 uM pretreated for 1 hr followed by washout and cultured in soft agar containing fresh medium for 18 days by crystal violet staining based assay; assay type: functional, cell-based; settings: dose 1-9 µM
[29] = Drug uptake in human U-937 cells assessed as fold increase in arsenic accumulation at 10 uM incubated for 10 mins by ICP-MS analysis; assay type: ADME, cell-based; settings: u-937, 10 min
NB-4 [30] = test: Induction of apoptosis in human NB4 cells assessed as early apoptotic cells at 3 uM preincubated for 1 hrs followed by replacement with fresh culture medium and measured after 24 hrs by Annexin V-FITC/7AAD staining based flow cytometry assay (reference value: 2.15%); assay type: functional

Sequence of PML-RARalpha (Homo sapiens) (P10276 whole entry, looked up): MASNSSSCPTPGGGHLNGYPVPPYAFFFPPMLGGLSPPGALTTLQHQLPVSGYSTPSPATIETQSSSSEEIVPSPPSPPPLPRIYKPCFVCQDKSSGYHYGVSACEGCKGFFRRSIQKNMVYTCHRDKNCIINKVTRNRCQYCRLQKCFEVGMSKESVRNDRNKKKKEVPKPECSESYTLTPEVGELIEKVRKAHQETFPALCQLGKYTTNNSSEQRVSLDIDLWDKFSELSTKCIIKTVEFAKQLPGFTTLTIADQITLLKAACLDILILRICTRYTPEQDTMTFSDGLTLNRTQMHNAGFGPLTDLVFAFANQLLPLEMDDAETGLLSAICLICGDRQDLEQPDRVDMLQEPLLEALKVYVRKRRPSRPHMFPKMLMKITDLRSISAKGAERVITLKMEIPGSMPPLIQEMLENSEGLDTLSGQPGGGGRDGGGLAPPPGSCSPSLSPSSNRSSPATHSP
Sequence of PML-RARalpha (Homo sapiens) (P29590 whole entry, looked up): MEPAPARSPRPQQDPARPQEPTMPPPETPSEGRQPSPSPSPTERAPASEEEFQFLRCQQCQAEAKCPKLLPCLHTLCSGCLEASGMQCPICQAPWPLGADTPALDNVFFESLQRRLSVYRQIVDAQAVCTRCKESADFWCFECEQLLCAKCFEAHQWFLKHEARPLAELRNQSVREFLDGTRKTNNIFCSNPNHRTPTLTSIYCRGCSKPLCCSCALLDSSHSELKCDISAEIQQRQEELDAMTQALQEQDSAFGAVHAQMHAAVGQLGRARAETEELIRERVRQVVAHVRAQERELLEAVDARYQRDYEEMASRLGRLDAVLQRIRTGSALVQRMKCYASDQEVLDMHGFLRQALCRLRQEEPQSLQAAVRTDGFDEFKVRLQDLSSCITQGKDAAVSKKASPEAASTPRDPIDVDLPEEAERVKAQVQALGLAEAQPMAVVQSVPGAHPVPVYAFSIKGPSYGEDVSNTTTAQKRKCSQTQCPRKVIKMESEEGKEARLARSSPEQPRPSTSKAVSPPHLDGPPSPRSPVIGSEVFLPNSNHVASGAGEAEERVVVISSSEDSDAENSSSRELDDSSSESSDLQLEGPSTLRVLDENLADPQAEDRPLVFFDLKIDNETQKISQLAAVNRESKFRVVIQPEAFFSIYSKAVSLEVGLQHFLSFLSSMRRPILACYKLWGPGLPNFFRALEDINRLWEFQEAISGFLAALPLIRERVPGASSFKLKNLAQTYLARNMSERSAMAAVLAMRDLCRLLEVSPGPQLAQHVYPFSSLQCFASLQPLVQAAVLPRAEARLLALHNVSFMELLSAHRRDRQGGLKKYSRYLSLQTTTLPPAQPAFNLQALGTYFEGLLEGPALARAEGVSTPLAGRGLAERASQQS

## CC(=O)OC[C@H]1O[C@@H](S[As]2SCCS2)[C@H](OC(C)=O)[C@@H](OC(C)=O)[C@@H]1OC(C)=O
NB-4 [1]
  Activity: 29%
NB-4 [2]
  Activity: 6.71%
[3]
  Activity: inactive
[4]
  fold change (FC): 19
NCI-H1299 [5]
  Activity: Active
[6]
  Drug uptake: Active
U-937 [7]
  IC50: 230 nM
U-937 [8]
  Activity: Active
NB-4 [9]
  viability at 27 µM: 54.1%
U-937 [10]
  Activity: inactive
[11]
  Activity: Non-Toxic
[12]
  QH: 90 mL/min/kg
HepG2
  Activity: ~ 90%
[13]
  Stability: Stable
[14]
  Drug uptake: Not Active
U-937 [15]
  Activity: Active
U-937 [16]
  Activity: Active
U-937 [17]
  Activity: Active
[18]
  fold change (FC): 112
U-937 [19]
  Activity: Active
NB-4 [20]
  Activity: 15.6%
[21]
  fold change (FC): 19
NB-4 [22]
  Activity: 32.9%
NCI-H1299 [23]
  Activity: Active
U-937 [24]
  Activity: Active
[25]
  Activity: inactive
NB-4 [26]
  Activity: 4.45%
[27]
  Activity: Active
NB-4 [28]
  inhibition: Active
[29]
  fold change (FC): 19
NB-4 [30]
  Activity: 4.21%
